# Data: ChEMBL document CHEMBL1121453, “Mammalian alkaloids. 8. Synthesis and biological effects of tetrahydropapaveroline related 1-benzyltetrahydroisoquinolines” (J Med Chem, 1980)
# Legend:
# Type in all cases: cell membranes, Membrane
# [1] = biological target: Adrenergic receptor alpha; assay: Inhibition of [3H]WB-4101 binding to alpha adrenergic receptor from rat cerebral cortical membranes
# Adrenergic receptor beta = Adrenergic receptor beta (Rattus norvegicus, UniProt P18090+P10608+P26255); assay: Inhibition of [3H]dihydroalprenolol binding to Beta adrenergic receptor from rat cerebral cortical membranes
# Dopamine receptor = assay: Inhibition of [3H]spiroperidol binding to dopamine receptor from rat striatum membranes
SMILES,Ki [1],Ki (Adrenergic receptor beta),Ki (Dopamine receptor)
COc1ccc(CC2NCCc3cc(OC)c(O)cc32)cc1O (configuration not stated),7.5 µM,4 µM,3.8 µM
COc1cc2c(cc1O)C(Cc1ccc(O)c(O)c1)NCC2 (configuration not stated),7.5 µM,0.2 µM,4.5 µM
Oc1ccc(C[C@H]2NCCc3cc(O)c(O)cc32)cc1O,25 µM,30 µM,35 µM
Oc1cc(Br)c(CC2NCCc3cc(O)c(O)cc32)cc1O (configuration not stated),0.5 µM,40 µM,1.5 µM
COc1cc(CC2(C(=O)O)NCCc3cc(O)c(O)cc32)ccc1O (configuration not stated),> 100 µM,> 100 µM,> 100 µM
O=C(O)C1(Cc2ccc(O)c(O)c2)NCCc2cc(O)c(O)cc21 (configuration not stated),> 100 µM,> 100 µM,> 100 µM
COc1ccc(C[C@H]2NCCc3cc(OC)c(O)cc32)cc1O,10 µM,30 µM,30 µM
Oc1ccc(CC2NCCc3cc(O)c(O)cc32)cc1O (configuration not stated),40 µM,0.3 µM,10 µM
COc1cc(CC2NCCc3cc(O)c(O)cc32)ccc1O (configuration not stated),4.5 µM,0.5 µM,5 µM
Oc1ccc(C[C@@H]2NCCc3cc(O)c(O)cc32)cc1O,5 µM,0.3 µM,2 µM
COc1ccc(C[C@@H]2NCCc3cc(OC)c(O)cc32)cc1O,5 µM,1.3 µM,1.5 µM
COc1ccc(CC2NCCc3cc(OC)c(OC)cc32)cc1OC (configuration not stated) [TETRAHYDROPAPAVERINE],10 µM,1 µM,–
COc1cc(C[C@@H]2NCCc3cc(O)c(O)cc32)cc(OC)c1OC [TRETOQUINOL],10 µM,–,5 µM
